Laboratory results taken from the METLIN SMRT retention time set (Domingo-Almenara et al. 2019).

Test: gradient 5% acetonitrile 3 min, to 50% in 2 min, to 85% in 15 min, held 3 min, 100 µL/min
Settings: column: Zorbax Extend-C18 2.1 x 50 mm; eluents: water / acetonitrile, 0.1% formic acid
In short: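 Standards, all pure, were combined into mixtures of ~100 molecules and run at 100 μL/min on a Zorbax Extend-C18 column (2.1 × 50 mm, 1.8 μm) with water and acetonitrile, each containing 0.1% formic acid. A coupled quadrupole time-of-flight mass spectrometer operated in positive and negative ionization mode. Retention time values come from computationally picked adduct peaks, each inspected manually.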

Compound | RP-LC retention time [s]
Cc1ccccc1NC(=O)CSc1nnc2c3cc(-c4ccccc4)nn3ccn12 | 841
c1ccc(-c2nc3nc4c(c(Nc5ccc6c(c5)OCCO6)n3n2)CCC4)cc1 | 961
CCCn1c(-c2cccc(C(=O)NCc3ccc(Br)cc3)c2)nc2cccnc21 | 875
COC(=O)Cn1cnc2c(-c3ccc(Br)cc3)csc2c1=O | 943
CC1CCC(NC(=O)CCn2nc(C(=O)N3c4ccccc4CC3C)ccc2=O)CC1 (configuration not stated) | 851
Nc1ccc(S(=O)(=O)Nc2cnc3c(Cl)cccc3n2)cc1 | 719
COc1ccc(NC(=O)Cn2c(C)nc3c(sc4nc(-c5ccccc5)ccc43)c2=O)cc1 | 988
CC(C)CNC(=O)C(=O)NCc1ccccn1 | 552
COCCN1C(=O)CCc2c(C)nc(-c3cccnc3)nc21 | 614
O=C(CN1CCN(C(=O)COc2ccc(Cl)cc2Cl)CC1)c1cccs1 | 630
CCCCNC(=O)c1cn(-c2ccc(NC(=O)CC)cn2)cn1 | 678
COc1ccc(N2C=C(C#N)S(=O)(=O)c3ccc(C)cc32)c(OC)c1 | 930
COc1cc(C(C)=O)ccc1OCC(O)CN1CCN(c2cccc(C)c2C)CC1 (configuration not stated) | 597
Cc1cc(NC(C)C)n2c(nc3ccccc32)c1C#N | 610
COc1ccc(-c2nnc(N3CCC(C(=O)NC4CCCCC4)CC3)o2)cc1 | 811
Cc1cccc(Sc2nccnc2N2CCC(C(=O)NCCN3CCOCC3)CC2)c1 | 668
CCc1cc(=O)n(CC(=O)Nc2cccc(F)c2)c(N2CCOCC2)n1 | 763
CCNC(=O)C1CCN(c2nc3ccc(-c4cccs4)nc3s2)CC1 | 815
CCc1sc(NC(=O)Cc2csc(C)n2)nc1-c1ccc(Br)cc1 | 1080

Compound | RP-LC retention time [s]
O=C(N1CC(Oc2ccccc2-c2nc(C3CC3)no2)C1)C1(c2ccccc2)CC1 | 665
CCC(CC)C(=O)Nc1nc(-c2ccc3c(c2)N(CC)C(=O)CO3)c(C)s1 | 1270
CC1CCN(C(=O)C2CCN(S(=O)(=O)c3ccc(-c4noc(C5CC5)n4)cc3)CC2)CC1 | 1040
CCn1nccc1-c1cccc(-c2noc(C(NC(=O)c3ccco3)C(C)C)n2)c1 (configuration not stated) | 973
Cc1cc(C)n(Cc2ccc(C(=O)NCC3Cn4cccc4C(=O)N3C)o2)n1 (configuration not stated) | 634
COCCNC(=O)C(C)n1nc(C)c2c(C)n(-c3ccccc3)nc2c1=O (configuration not stated) | 695
COc1cccc(-c2cc3n(n2)C(NC2CC2)CNC3=O)c1 (configuration not stated) | 562
CCCNC(=O)Cn1c(=O)c2cnc(-c3ccccc3)nc2n(CC)c1=O | 862
COc1cccc(-c2ccnc3nc(Cc4ccc(F)cc4)nn23)c1 | 922
CC(=O)N1c2ccc(S(=O)(=O)N3CCCC3)cc2CC1C(=O)NCCN1CCCCC1 (configuration not stated) | 592
O=C(Cc1csc(NC(=O)Nc2ccccc2)n1)NCCc1c[nH]c2ccccc12 | 891
Cc1cc(C)n(Cc2ccc(C(=O)N3CCN(c4ccc(=O)n(-c5ccccc5)n4)CC3)o2)n1 | 706
CCc1noc(NC(C)=O)c1-c1ccc(OC)c(S(=O)(=O)NCc2ccc(C)cc2)c1 | 802
COc1ccc(Cn2c(=O)c3sccc3n(Cc3nc(-c4ccc(F)cc4)no3)c2=O)cc1 | 1080
O=C(CCc1c(-c2ccc(Br)cc2)nc2ccccn12)NCc1cccc(F)c1 | 677
Cc1ccc(NC(=O)c2[nH]c3cc(C)sc3c2CN(C)C)c(Cl)c1 | 708
O=C(O)c1cnc(N2CCOCC2)nc1-c1ccc(Cl)cc1 | 823
CC(C)(C)c1cc(C(=O)Nc2cccc(C#N)c2)nc2ccnn12 | 1170
